According to EP0117302A2, “Phenothiazine derivatives” (THE WELLCOME FOUNDATION LIMITED, priority 1982, dated 1984):
Like-named read-outs stand apart in the source and are kept apart here.

Tests used:
[1] = test system: histamine; assay: In vitro antihistamine activity: histamine concentration-response curves on isolated ileum longitudinal muscle, Schild plot; format: cell-based, guinea-pigs; settings: guinea-pig ileum longitudinal muscle, one hour incubation with test compound, antagonism of histamine; for pA2: 60 min; for Kb: Cavia porcellus, 1 h, read-out: pA2 (converted)
Description: A. In vitro antihistamine activity: The longitudinal muscle was isolated from the intact ileum of guinea-pigs (Hartley, male 250-400g) and placed in an organ bath under 300 mg tension. […] Following washing, the tissues were incubated for one hour with the test compound and then a second histamine concentration-response curve was run. […] Regression of Log (dr-1) on Log [B], where dr is an equiactive response in the presence and absence of antagonist and [B] is the molar concentration of antagonist, allowed an estimate of pA2, i.e. the negative log of the concentration of antagonist which shifts the control histamine concentration response curve 2X to the right.

[2] = test system: compound 48/80; assay: Inhibition of compound 48/80 induced anaphylactoid reaction; format: in vivo, Wister rats; settings: Rattus norvegicus, rats, compound administered 2 hrs. prior to test, read-out: ED50 (dose providing 50% protection against death induced by compound 48/80)
Description: Non-fasted, Wister rats (180-300g).were dosed with the test compound, (i.p. or p.o.) 2 hours before compound 48/80 challenge. One hour prior to challenge, 5 mg/kg i.p. of propranolol was administered. The anaphylactoid inducing agent, compound 48/80, was given intravenously at 2 mg/kg and the animals were monitored for symptoms of respiratory distress.
Data were analyzed by Probit determinations. the response was quantitated by determining the dose of test compound which protected 50% of the animals from death at a given time point.
Agents which block the effects of compound 48/80 are commonly classified as inhibitors of anaphylactic mediators or inhibitors of the release of anaphylic mediators.

[3] = test system: histamine; assay: In vivo antihistaminic activity: protection against histamine aerosol challenge; settings: Cavia porcellus, po, guinea pigs
Description: B. In vivo Antihistaminic Activity: Guinea pigs (Hartley, male, 300-350 g) were fasted for 20 hours and then dosed p.o. or i.p. with the test compound. One hour after dosing, on an individual basis, the guinea pigs were placed in a clear plastic chamber which was saturated and continually gassed with 0.25% histamine from an aerosol nebulizer. The guinea pigs were monitored for signs of histamine anaphylaxis (e.g. cough, sneeze, strong abdominal movements, cyanoses or loss of righting). […] ED50's for protection against histamine were calculated by probit analysis. […] Complete protection was defined as no histamine symptoms for six minutes in the aerosol chamber (approximately 10X the collapse time of the control animals).

[4] = Pharmacokinetic studies: relative distribution in brain and plasma; format: in vivo; settings: rodents, compared with promethazine
[5] = Acute toxicity (approximate LD50); settings: rat, in vivo, rats

Row | Compound | ED50 ([2]; ip) [mg/kg] | Kb [1] [nM] | also measured
1 | 4 (or 1)-(2-carboxyethyl)-10-(2-dimethylaminopropyl)-phenothiazine [Compound I] |  |  | pA2 [1]: 7.2
2 | 10-(2-dimethylaminopropyl)phenothiazine-4(or 1)-carboxylic acid [Compound G] |  |  | pA2 [1]: 6.8
3 | COc1ccc(CCN2CCC(Nc3nc4ccccc4n3Cc3ccc(F)cc3)CC2)cc1 [Astemizole, reference compound] | 1.08 |  | 
4 | CC(CN1c2ccccc2Sc2ccc(/C=C/C(=O)O)cc21)N(C)C (stereo not drawn) [Compound A, trans-β-[10-(2-Dimethylaminopropyl)phenothiazin-2-yl]acryiic acid] | 2.64 | 6.31 | ED50 ([3]; 0.25% histamine aerosol, 1 hour post-dosing, read-out: ED50): 1.7 mg/kg; ED50 ([3]; 24 hours protection, read-out: ED50 for 24 hours protection): 11 mg/kg; brain penetration [4]: do not readily penetrate the brains of rodents
5 | CC(CN1c2ccccc2Sc2ccc(CC(=O)O)cc21)N(C)C (centres unmarked) [Compound B, 2-[10-(2-Dimethylaminopropyl)phenothiazin-2-yl]acetic acid] | 0.89 | 0.398 | ED50 ([2]; po): 1.2 mg/kg; ED50 ([3]; 0.25% histamine aerosol, 4 hours post dosing, read-out: ED50): 0.3 mg/kg; LD50 ([5]; ip): ~210 mg/kg; LD50 ([5]; po): > 500 mg/kg; brain penetration [4]: do not readily penetrate the brains of rodents
6 | CC(C(=O)O)c1ccc2c(c1)N(CC(C)N(C)C)c1ccccc1S2 (centres unmarked) [Compound C, 2-[10-(2-Dimethylaminopropyi)phenothiazin-2-yl]propionic acid] | 1.43 | 7.94 | 
7 | CC(CN1c2ccccc2Sc2cc(C(=O)O)ccc21)N(C)C (centres unmarked) [Compound D, 10-(2-dimethylaminopropyI)phenothiazine-3-carboxylic acid] |  | 631 | 
8 | CC(CN1c2ccccc2Sc2cc(/C=C/C(=O)O)ccc21)N(C)C (centres unmarked) [Compound E, E-3-(2-carboxyvinyl)-10-(2-dimethylaminopropyl)-phenothiazine] | 3.11 | 631 | 
9 | CC(CN1c2ccccc2Sc2cc(CCC(=O)O)ccc21)N(C)C (centres unmarked) [Compound F, 3-(2-carboxyethyl)-10-(2-dimethylaminopropyl)phenothiazine] |  | 6310 | 
10 | CCOC(=O)Cc1ccc2c(c1)N(CC(C)N(C)C)c1ccc(Cl)cc1S2 (centres unmarked) [Compound J] |  | 1 | 
11 | CC(CN1c2ccc(Cl)cc2Sc2ccc(CC(=O)O)cc21)N(C)C (centres unmarked) [Compound K, [7-Chloro-10-(2-dimethylaminopropyl)-2-phenothiazinyl]acetic acid] |  | 1.58 | 
12 | CCOC(=O)Cc1ccc2c(c1)N(CCN(C)C)c1ccc(C)cc1S2 [Compound L, Ethyl [10-(2-dimethylaminoethyl)-7-methyl-2-phenothiazinyl]acetate] |  | 0.794 | 
13 | Cc1ccc2c(c1)Sc1ccc(CC(=O)O)cc1N2CCN(C)C [Compound M, [10-(2-Dimethylaminoethyl)-7-methyl-2-phenothiazinyl]acetic acid] |  | 1.26 | 
14 | CCOC(=O)C(C)(C)c1ccc2c(c1)N(CC(C)N(C)C)c1ccccc1S2 (centres unmarked) [Compound O, Ethyl 2-[10-(2-dimethylaminopropyl)-2-phenothiazinyl]-2-methylpropionate] |  | 3.16 | 
15 | CC(CN1c2ccccc2Sc2ccc(C(C)(C)C(=O)O)cc21)N(C)C (centres unmarked) [Compound P] |  | 1.58 | 
16 | CN(C)CCCN1c2ccccc2Sc2ccc(C(C)(C)C(=O)O)cc21 [Compound Q, 2-[10(3-dimethylaminopropyl)-2-phenothiazinyl]-2-methylpropionic acid] |  | 2 | 
17 | CC(CN1c2ccccc2Sc2ccc(C(=O)O)cc21)N(C)C (centres unmarked) [Compound S, 10-(2-Dimethylaminopropyl)phenothiazin-2-yl-carboxylic acid] |  | 1 | 
18 | CN1CCC(=C2c3ccccc3CC(=O)c3sccc32)CC1 [Ketotifen, reference compound] | 0.87 |  | 
19 | E-4 (or 1)-(2-carboxyvinyl)-10-(2-dimethylaminopropyl)phenothiazine [Compound H] |  |  | pA2 [1]: 7.8
20 | [10-(2-diethylaminoethyl)-7-fluoro-2-phenothiaznyl]acetic acid [Compound N] |  |  | pA2 [1]: 8.6
